Results from patent US20100015240A1, “PROCESS FOR PREPARING MICROPARTICLES CONTAINING BIOACTIVE PEPTIDES” (priority 2008, published 2010).

Experiment: Peptide solubility in polyols estimated by visual observation of solutions
Type: physicochemical
Settings: solvent propylene glycol
Source text: Solubilities at various concentration ranges were estimated based on visual observations of solutions prepared at the indicated peptide concentration levels listed in Table II.

Measured: Peptide solubility at specified concentration level

C[C@@H](O)[C@@H]1NC(=O)[C@H](CCCCN)NC(=O)[C@@H](Cc2c[nH]c3ccccc23)NC(=O)[C@H](Cc2ccccc2)NC(=O)[C@@H](NC(=O)[C@H](N)Cc2ccccc2)CSSC[C@@H](C(=O)N[C@H](CO)[C@@H](C)O)NC1=O [Octreotide]
Soluble: 100 mg/mL | <10 mg/mL | at 10 mg/mL
